Results taken from publication PMC12203697, “Bioactive constituents from the edible seaweed Halymenia hawaiiana (Rhodophyta)” (Pharmaceutical Biology, 2025).

System: ROS/RNS generation in RAW 264.7 cells
Experiment: Intracellular ROS/RNS levels in LPS-induced RAW 264.7 cells (H2DCF-DA)
Type: cell-based
Details: Mus musculus, RAW264.7; RAW 264.7 cells, H2DCF-DA dye, LPS 1 μg/mL; read-out: IC50, inhibition of LPS-induced ROS/RNS generation
Protocol: To measure the formation of intracellular ROS and RNS, we utilized the fluorogenic dye 2′,7′-dichlorodihydrofluorescein diacetate (Cat. No. 4091-99-0, H2DCF-DA, Abcam, Boston, MA, USA). This dye detects hydrogen peroxide, peroxyl radicals, and peroxynitrite anions (Kwon et al. [2019]). In brief, RAW 264.7 cells were seeded into a black 96-well plate (Cat. No. 165305, Thermo Fisher, USA) at 4 × 10^4 cells per well and incubated for 24 hr at 37 °C in 5% CO2. Afterward, the cells were treated with or without a sample for 4 hr before adding 1 μg/mL LPS (Cat. No. 00-4976-93, Thermo Fisher, USA) for 20 hr. Once this incubation was complete, the cells were washed twice with fetal bovine serum (FBS)-free media (Cat. No. A5256701, Thermo Fisher, USA) and stained with 10 μM H2DCF-DA (Cat. No. D399, Thermo Fisher, USA) in FBS-free media for 30 min at 37 °C, protected from light. Next, the dye-containing media was discarded, and the cells were washed twice with fresh serum-free media. The relative fluorescent intensity of the cells was measured using a fluorescence plate reader (Synergy H1, BioTeK, Winooski, VT, USA) with excitation/emission at 485 nm/535 nm. Curcumin (Cat. No. C1386-5G, Millipore Sigma, Burlington, MA, USA), a natural phenolic compound with antioxidant activity, was used as positive control. All samples were tested in triplicates. A sulforhodamine B (SRB) assay was conducted to assess cellular viability under a similar experimental setup. The final percentage of inhibition of ROS/RNS generation was calibrated using the % of cell viability.

An IC50 of 7.6 ± 0.1 µM was found for `COc1cc(/C=C/C(=O)CC(=O)/C=C/c2ccc(O)c(OC)c2)ccc1O` [Curcumin, reference compound] in this work.
